In US10849840B2, “Compositions and methods for stimulation MAGP-1 to improve the appearance of skin” (New Avon LLC, priority 2010, dated 2020):

Test system: MAGP-1
Assay: MAGP-1 screening method: MAGP-1 mRNA (RT-qPCR, normalized to GAPDH) in treated normal human dermal fibroblasts
Assay type: cell-based
Conditions: 48 hours treatment
Description: Normal human dermal fibroblasts (Cascade Biologics) were cultured in 100 mm plates with 10 ml of DMEM with 10% serum and incubated for 24 hours at 37° C. and 10% CO2. After 24 hours, stock solutions of test compounds/plant extracts were made in appropriate solvents (e.g., DMSO). Cells were treated with test material or respective vehicle control diluted in growth medium for 48 hours in a humidified 37° C. incubator with 10% CO2. After incubation, growth medium from each plate was removed and 800 ul of TRIzol Reagent (Invitrogen) was added to the plates. Cell lysates were collected and placed in −80° C. freezer until RNA isolation and analysis.
RNA was isolated by following the manufacturer's procedures. Briefly, the cell lysates were brought to room temperature. 0.2 ml of chloroform per 1 ml of TRIzol® Reagent was added. The tubes were shaken vigorously for 15 seconds and incubated at ambient temperature for 2 to 3 minutes. The samples were centrifuged at 12,000×g for 15 minutes at 2 to 8° C. Following centrifugation; the mixture separated into multiple phases, and RNA remains exclusively in the upper aqueous phase.
The aqueous phase was then transferred to a fresh tube. The RNA was precipitated from the aqueous phase by mixing with 0.5 ml of isopropyl alcohol per 1 ml of TRIzol® Reagent was used for the initial homogenization. Samples were incubated at 15 to 30° C. for 10 minutes and centrifuged at 12,000×g for 10 minutes at 2 to 8° C. […] The sample was mixed by vortexing and centrifuged at 7,500×g for 5 minutes at 2 to 8° C. The RNA pellet was briefly air dried. RNA was dissolved in RNase-free water, and the concentration of total RNA was determined by using Nanodrop (Thermo Scientific, DE).
Reverse Transcription (RT) reactions were conducted in a total volume of 20 μl. The RT mixture was prepared to contain 2 μl 10× TaqMan RT buffer, 4.4 μl 25 mM MgCl2, 4.0 μl dNTP mix, 1.0 μl Random Hexamer, 0.4 μl RNase Inhibitor, 0.5 μl MultiScribe Reverse Transcriptase (50 U/ml), 2.0 μg of RNA, and RNase-free water to make up the final volume of 20 μl. […] After the RT step, the reactions were stored at −20° C. for qPCR analysis.
Quantitative Polymerase Chain Reaction (qPCR) was conducted in a total volume of 20 μl. Applied Biosystems (AB) Universal PCR master mix was used. The mixture was prepared to contain 10 μl of Taqman Universal PCR mix, 1 μl of primer and probe mix, 2 μl of RT product, and 7 μl of deionized water.
The temperature profiles for QPCR were 50° C. for 2 min, and 95° C. for 10 min for 1 cycle, then at 95° C. for 15 sec, and 60° C. for 1 min for 40 cycles. Values for MAGP-1 mRNA were collected along with those for the reference genes GAPDH.

Compound	Activity Level (percent increase in mRNA for MAGP-1 vs vehicle control) (concentration 0.01%)	Activity Level (percent increase in mRNA for MAGP-1 vs vehicle control) (concentration 0.001%)
CC(C)CN(Cc1ccc(OS(C)(=O)=O)cc1)S(=O)(=O)c1ccccc1 [Compound of structure I, 4-((N-isobutylphenylsulfonamido)methyl)phenyl methanesulfonate]	++++ (++++: >80%)	–
Cc1cccc(Cc2nc3ccccc3n2CC(=O)N2CCOCC2)c1 [Compound of structure II, 2-{2-[(3-methylphenyl)methyl]-1H-1,3-benzodiazol-1-yl}1-(morpholin-4-yl)ethan-1-one]	++++ (++++: >80%)	–
O=C(O)CCSCCC(=O)O [Thiodipropionic acid (TDPA), Thiodipropionic acid]	–	++ (++: 41-60%)
lysine-threonine-phenylalanine-lysine [KTFK]	–	++++ (++++: >80%)
